Experimental data published in patent publication US5436229A, “Bisulfite adducts of arginine aldehydes” (Eli Lilly and Company, priority 1994, dated 1995).
Non-standard residues stand in square brackets, D forms with d. Residues, ends and D or L forms follow the SMILES beside them. dNMeCha = CN[C@H](CC1CCCCC1)C(=O)O

Tests used:
human thrombin = human thrombin (Homo sapiens, UniProt P00734); assay: Thrombin amidase inhibition (Kass), chromogenic substrate; assay type: biochemical
How it was run: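 Kass, in liter per mole, was averaged over several compound concentrations, using free thrombin from a rate standard curve and free inhibitor as added minus bound. Hydrolysis of chromogenic substrate (0.25 mg/ml solution) was monitored at 405 nm with human thrombin (8 NIH units/ml solution) in Tris-NaCl buffer pH 7.4, compound in 50% aqueous methanol.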

[1] = Index of Bioavailability (plasma TT AUC, oral vs i.v.); assay type: in vivo; settings: rats, oral vs i.v. bolus
From the text: Assays are done in duplicate and averaged.
Each sample population represents alternating sequential time points.

[2] = molecular target: T1, tissue plasminogen activator (t-PA) (Homo sapiens, UniProt P00750); assay: Serine protease inhibition (Kass), t-PA; assay type: biochemical
T1 construct: purchased American Diagnostica, Greenwich, Conn
T1 sequence (P00750 36-562): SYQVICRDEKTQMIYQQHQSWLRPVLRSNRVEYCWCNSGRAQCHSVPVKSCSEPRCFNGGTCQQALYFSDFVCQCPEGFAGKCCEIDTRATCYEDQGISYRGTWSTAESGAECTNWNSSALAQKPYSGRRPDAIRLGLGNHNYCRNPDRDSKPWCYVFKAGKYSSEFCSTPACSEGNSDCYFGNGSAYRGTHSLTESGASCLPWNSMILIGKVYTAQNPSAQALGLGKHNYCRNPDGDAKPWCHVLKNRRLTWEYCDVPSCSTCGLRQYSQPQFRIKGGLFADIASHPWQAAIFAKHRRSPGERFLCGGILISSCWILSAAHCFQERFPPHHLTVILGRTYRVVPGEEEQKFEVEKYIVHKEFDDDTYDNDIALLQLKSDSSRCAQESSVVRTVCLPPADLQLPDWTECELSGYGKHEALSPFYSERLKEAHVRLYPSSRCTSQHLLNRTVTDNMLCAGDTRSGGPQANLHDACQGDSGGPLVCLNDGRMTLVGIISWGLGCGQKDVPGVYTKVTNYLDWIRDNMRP

Human plasmin = molecular target: T2, Human plasmin (Homo sapiens, UniProt P00747); assay: Serine protease inhibition (Kass), plasmin; assay type: biochemical
T2 construct: Human plasmin is purchased from Boehringer Mannheim; purchased Boehringer Mannheim, Indianapolis, Ind
T2 sequence (P00747 581-810 limits assumed): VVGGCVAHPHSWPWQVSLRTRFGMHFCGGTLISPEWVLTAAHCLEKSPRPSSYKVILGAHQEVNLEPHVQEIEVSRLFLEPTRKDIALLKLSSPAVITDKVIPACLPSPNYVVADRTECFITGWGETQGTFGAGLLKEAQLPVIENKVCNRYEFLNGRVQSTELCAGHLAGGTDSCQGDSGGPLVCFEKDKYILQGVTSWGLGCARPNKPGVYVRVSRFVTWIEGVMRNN
T2 sequence (P00747 97-580 partner limits assumed): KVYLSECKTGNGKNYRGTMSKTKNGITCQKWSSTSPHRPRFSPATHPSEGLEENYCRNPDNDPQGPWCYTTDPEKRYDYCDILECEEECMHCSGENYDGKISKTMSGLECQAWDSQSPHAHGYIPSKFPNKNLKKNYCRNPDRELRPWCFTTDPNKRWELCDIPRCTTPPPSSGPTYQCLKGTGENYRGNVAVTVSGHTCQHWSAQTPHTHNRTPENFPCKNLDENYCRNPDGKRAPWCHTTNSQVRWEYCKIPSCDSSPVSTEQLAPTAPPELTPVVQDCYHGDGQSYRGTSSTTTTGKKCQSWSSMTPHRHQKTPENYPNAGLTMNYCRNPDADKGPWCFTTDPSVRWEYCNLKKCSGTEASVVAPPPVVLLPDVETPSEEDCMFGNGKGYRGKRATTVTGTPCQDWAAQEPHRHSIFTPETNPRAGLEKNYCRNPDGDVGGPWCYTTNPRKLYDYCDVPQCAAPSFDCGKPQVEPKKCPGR
How it was run: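 Kass values come from the thrombin chromogenic procedure applied to fibrinolytic proteases. t-PA (nt-PA single chain, or mt-PA6) paired with substrate H-D-Ile-Pro-Arg-p-nitroanilide; human plasmin paired with H-D-Val-Leu-Lys-p-nitroanilide.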

Bovine trypsin = molecular target: T3, Bovine trypsin (Bos taurus, UniProt P00760); assay: Serine protease inhibition (Kass), trypsin; assay type: biochemical
T3 construct: Bovine trypsin is purchased from Worthington Biochemicals; purchased Worthington Biochemicals, Freehold, N.J
T3 sequence (P00760 24-246): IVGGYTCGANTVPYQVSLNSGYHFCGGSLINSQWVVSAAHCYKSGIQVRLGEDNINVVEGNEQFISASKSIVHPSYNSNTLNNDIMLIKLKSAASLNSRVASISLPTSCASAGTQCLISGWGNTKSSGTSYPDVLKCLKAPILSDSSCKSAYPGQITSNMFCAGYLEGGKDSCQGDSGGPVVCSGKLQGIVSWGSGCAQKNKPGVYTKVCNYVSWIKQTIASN
How it was run: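 Chromogenic p-nitroanilide substrate assays run as for human thrombin; trypsin with N-Benzoyl-Phe-Val-Arg-p-nitroanilide, human factor Xa with N-Benzoyl-Ile-Glu-Gly-Arg-p-nitroanilide. Values are association constants (Kass).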

CN[C@H](CC1CCCCC1)C(=O)N1CCC[C@H]1C(=O)N[C@H](C=O)CCCNC(=N)N.Cl [Example 75, N-methyl-D-cyclohexylalanyl-L-Prolinyl-L-Arginine Aldehyde Hydrochloride] (H-[dNMeCha]-Pro-Arg-aldehyde)
Kass Human Thrombin (human thrombin): 590 L/mol × 10^6 | Percent Relative Activity (Index of Bioavailability) [1]: 13% | Kass t-PA [2]: 0.37 L/mol × 10^6 | Kass Plasmin (Human plasmin): 7.7 L/mol × 10^6 | Kass Trypsin (Bovine trypsin): 160 L/mol × 10^6

N=C(N)NCCCC(C=O)NC(=O)C1CCCN1C(=O)C1CC2CCCCC2CN1.O=S(=O)(O)O [80 (Step F), D-3-(cis)Piq-Pro-Arg-H.H2 SO4]
Kass Human Thrombin (human thrombin): 56 L/mol × 10^6 | Percent Relative Activity (Index of Bioavailability) [1]: 46% | Kass t-PA [2]: 0.5 L/mol × 10^6 | Kass Plasmin (Human plasmin): 1.6 L/mol × 10^6 | Kass Trypsin (Bovine trypsin): 183 L/mol × 10^6
